Active and inactive are the calls of the source. The rule behind the calls is not given here.

One may read the Ki as the equilibrium dissociation constant of an inhibitor or competing ligand from its target. A high value points to a looser hold on the target. By IC50 is commonly meant the concentration needed to halve the response being measured.

For assay [1], the target named is Somatostatin receptor type 4 (Homo sapiens, UniProt P31391). As to the kind of experiment: Binding affinity to human SSTR4.
Assay [2] has as its system HUVEC. As to the kind of experiment: Antiangiogenic activity in HUVEC assessed as partial inhibition of tube formation at 20 uM. The assay is classed as functional, cell-based. The conditions noted are these: Homo sapiens.
Assay [3] addresses Somatostatin receptor type 5 (Homo sapiens, UniProt P35346). As to the kind of experiment: Binding affinity to human SSTR5.
The test system of assay [4] is HUVEC. Briefly: Cytotoxicity against HUVEC after 72 hrs by MTT assay. In kind it is cell-based. Conditions: Homo sapiens. In general terms: Tetrazolium assays rely on reduction of a dye to a coloured formazan, in cell work by metabolically active cells.
Assay [5] deals with HUVEC. Briefly: Antiangiogenic activity in HUVEC assessed as complete inhibition of tube formation at 40 uM. Conditions: Homo sapiens. In kind it is functional, cell-based.
The next assay deals with Tubulin (Homo sapiens) (UniProt P68371+Q9H4B7+P0DPH7+P68366+Q13509+Q71U36+P04350+Q3ZCM7+P07437+P68363+Q9BQE3+Q6PEY2+Q13885+Q9BVA1+Q9BUF5). Briefly: Inhibition of tubulin polymerization in HUVEC at 20 uM by fluorescence staining. The assay is classed as cell-based.
The test system of assay [6] is HUVEC. Briefly: Inhibition of HUVEC migration at 20 uM by scratch-wound healing assay. In kind it is functional, cell-based. The conditions noted are these: Homo sapiens.
In assay [7] the test system is HUVEC. Briefly: Induction of apoptosis in HUVEC assessed as change in mitochondrial membrane potential at 10 to 20 uM after 48 hrs by JC1 staining. The conditions noted are these: Homo sapiens. In kind it is functional, cell-based.
In assay [8] the test system is HUVEC. Briefly: Induction of cell cycle arrest in HUVEC assessed as accumulation at G1 phase at 20 uM after 24 hrs by flow cytometry. In kind it is functional, Homo sapiens. On the technique in general: In flow cytometry, cells or beads pass a laser one at a time.
For assay [9], the system named is HUVEC. Briefly: Induction of cell cycle arrest in HUVEC assessed as accumulation at S phase at 20 uM after 24 hrs by flow cytometry. The assay is classed as functional, Homo sapiens.
Assay [10] has as its system HUVEC. Briefly: Induction of cell cycle arrest in HUVEC assessed as accumulation at G2/M phase at 20 uM after 24 hrs by flow cytometry. The assay is classed as functional, Homo sapiens.
Assay [11] has as its system HUVEC. As to the kind of experiment: Induction of apoptosis in HUVEC at 10 to 20 uM after 48 hrs by fluorescence assay. Conditions: Homo sapiens. The assay is classed as functional, cell-based.

Sequence of Somatostatin receptor type 4 (P31391 whole entry): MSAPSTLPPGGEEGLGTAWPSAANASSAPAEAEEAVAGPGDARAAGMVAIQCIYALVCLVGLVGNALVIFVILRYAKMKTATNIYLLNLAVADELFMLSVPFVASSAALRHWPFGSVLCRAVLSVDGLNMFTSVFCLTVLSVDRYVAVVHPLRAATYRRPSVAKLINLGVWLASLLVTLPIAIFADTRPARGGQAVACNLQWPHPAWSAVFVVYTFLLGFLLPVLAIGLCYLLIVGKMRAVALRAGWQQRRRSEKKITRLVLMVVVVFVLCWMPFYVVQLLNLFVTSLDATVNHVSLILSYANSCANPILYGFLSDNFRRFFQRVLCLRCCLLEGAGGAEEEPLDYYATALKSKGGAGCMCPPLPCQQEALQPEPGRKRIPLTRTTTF
Sequence of Somatostatin receptor type 5 (P35346 whole entry): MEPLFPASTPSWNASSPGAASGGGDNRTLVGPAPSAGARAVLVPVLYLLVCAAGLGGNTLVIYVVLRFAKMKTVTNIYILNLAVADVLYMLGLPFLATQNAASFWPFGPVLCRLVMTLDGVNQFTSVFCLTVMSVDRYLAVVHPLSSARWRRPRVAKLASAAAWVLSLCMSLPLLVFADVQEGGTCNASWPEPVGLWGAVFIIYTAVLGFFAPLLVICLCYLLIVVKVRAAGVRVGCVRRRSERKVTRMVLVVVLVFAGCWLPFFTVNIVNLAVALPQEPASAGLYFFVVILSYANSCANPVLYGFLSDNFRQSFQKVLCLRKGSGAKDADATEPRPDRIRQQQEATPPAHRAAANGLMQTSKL

Turning to `NCCCCCOC[C@@H]1[C@@H](OCc2ccccc2)[C@H](OCc2ccccc2)[C@@H](OCc2ccccc2)CN1CCc1c[nH]c2ccccc12`, the inhibitory constant (Ki) in assay [1] worked out at 4.4 µM; in assay [3] it was 5 µM. Further, the inhibition entry with HUVEC [2], in the assay with HUVEC [5], at Tubulin (Homo sapiens) and in the assay on HUVEC [6] was “Active” each time. For the same molecule, the IC50 in the assay with HUVEC [4] was determined as 12.6 µM. The result with HUVEC [7] and with HUVEC [11] was Active. In addition, the Activity in the assay with HUVEC [8] came out at 70.39%; with HUVEC [9], 13.81%; in the assay with HUVEC [10], 16.27%.

For the origin of these results see ChEMBL document CHEMBL1641483, “Biological study of a somatostatin mimetic based on the 1-deoxynojrimycin scaffold” (Bioorg Med Chem Lett, 2011).
